This is an account of results in patent publication US20240408140A1, “ENHANCING ANTICANCER FUNCTION OF NATURAL KILLER CELL THROUGH REGULATION OF ANTIOXIDANT MECHANISM” (priority 2021, published 2024).

The subject of this series is Yac-1 cell line. The series can be described thus: Cytotoxicity of NK cells cultured in NK cell activation medium including antioxidants, co-culture with Yac-1 cells. The conditions noted are these: mouse spleen NK cells cultured 30-60 minutes in medium with 1 mM N-acetylcysteine or 0.5 mM TEMPOL; compared with normal NK cells (control) (FIG. 6).

Description: NK cell activation media were prepared as follows. In an NK cell culture medium obtained by mixing 10% FBS, 1× penicillin/streptomycin, 1× glutamax, 1× HEPES, 0.5 mM sodium pyruvate, 50 μM 2-mercaptoethanol, and 50 ng/ml interleukin-2 (IL-2) in RPMI1640 medium, 1 mM N-acetylcysteine or 0.5 mM 4-hydroxy-2,2,6,6-tetramethylpiperidine 1-oxyl (TEMPOL) was blended.
The Yac-1 cell line was added in RPMI1640 (10% FBS/RPMI1640) medium including 10% FBS, treated with 5 μg/ml Calcein AM (Invitrogen, C1430), and cultured for 1 hour in a cell culture machine at 37° C. in the presence of 5% carbon dioxide conditions to label with fluorescence. Afterwards, the NK cells and fluorescence-labeled Yac-1 cells were mixed in a ratio of 10:1, 5:1, and 1:1 and dispensed in a round bottom 96-well plate (SPL, #34096). Additionally, fluorescence-labeled Yac-1 cells were also dispensed into the wells of the maximum (Maximum, 10% FBS/RPMI1640 including 2% Triton X-100) and minimum (Minimum, 10% FBS/RPMI1640) to calculate the cytotoxicity rate. […] After culture for 4 hours, the medium was mixed well and centrifuged at 100×g for 5 minutes, the supernatant was transferred to a black plate (SPL, #30296), and fluorescence was measured using a fluorescence microplate reader. […]
Cytotoxicity=[(Test fluorescence−minimum fluorescence)/(maximum fluorescence−minimum fluorescence)]×100 [Equation 1] […]

As for `CC1(C)CC(O)CC(C)(C)N1[O]` [Tempol, 4-hydroxy-2,2,6,6-tetramethylpiperidine 1-oxyl], the cytotoxicity entry is “higher cytotoxicity than normal NK cells”.
